One data set relates to MMP-9. The data set is described as follows: Gelatin zymography of conditioned media, MMP-9 production. The class given is cell-based, human. The conditions noted are these: compared to control containing no peptide. The source says: To assess whether the peptide SEQ ID NO.1 impacted MMP-2, MMP-9 and uPA production Zymography was used.
Zymography is a technique for studying hydrolytic enzymes on the basis of substrate degradation. The in-gel zymography hydrolytic enzymes are separated by their molecular weights and detected by their ability to degrade a substrate. To detect the activity of MMP-2 and MMP-9 in various cell lines, conditioned media were collected in 3 independent experiments and analysed by gelatin zymography to quantify the level of gelatin digestion, which reflects MMP-2 and MMP-9 activity and production. Casein-Plasminogen zymography was conducted to determine the activity level of uPA in the conditioned medium from various cell lines. Active uPA converts plasminogen into plasmin which then digests casein, thus clear bands where digestion of casein have occurred indirectly represent uPA activity.
The effect of the peptides on matrix protease production was tested using in-gel zymography. If the substrate included in the gel is gelatin, the enzymes detected are gelatinases: MMP-2 and MMP-9 (the latter is often of low abundance). If the gel contains casein and plasminogen, the enzymes tested are urokinase plasminogen activators (uPA); uPA is a therapeutic target in GBM.
An equal amount of protein from each sample was mixed with 5 μL of Laemmli buffer (0.01% Bromophenol Blue (W/V), 5% SDS (W/V), 22% glycerol (V/V), 14% 0.5 M Tris pH 6.8 (V/V)) and loaded onto a 10% polyacrylamide gel co-polymerized with 1 mg/ml of gelatin, and electrophoresed at 120 V for 2 hours on ice. The gel was incubated in […] solution (Triton X-100 2.5% (V/V), 1 M Tris pH 7.5 5% (V/V), 0.5 M CaCl2 1% (W/V) at room temperature overnight on an orbital shaker. The gel was incubated in a second solution for 3 hours at 37° C. The gel was then stained with Coomassie blue solution (Coomassie blue 0.25%, methanol 45%, acetic acid 10%) and destained in methanol 25% (V/V), acetic acid 10% (V/V) destaining solution until clear bands against the dark background appeared around 72 kDa and 95 kDa, representing MMP-2 and MMP-9 activity, respectively. Clear bands around 50 kDa appeared against the dark background representing uPA activity. The gels were scanned, and uPA, MMP-2 and MMP-9 were quantified by densitometry using NIH Image J software.
SEQ ID NO.1 was compared to a control containing no peptide to evaluate whether the peptide can reduce the production of matrix proteinases. A reduction in the production of matrix proteinases may be anticipated to result in comparatively less degradation of the extra-cellular matrix and so this could be one pathway by which the invasion potential could be reduced. […] This could be confirmed using a MMP-9 quantification kit, and altered production by a transcriptional mechanism can be unveiled using qRT-PCR.

A further data set deals with U251 cells. Nature of the data set: MTT assay for cytotoxicity, U251. The note with it: 48 hours, % viability of control. It counts as cell-based, human. The source says: The MTT (3-[4.5-dimethylthiazol-2-yl]-2,5═diphenyl tetrazolium bromide) assay is based on a process undertaken by living cells, involving the conversion of MTT into formazan crystals. This assay is used routinely to measure the in vitro cytotoxic effects of drugs on cell lines or primary patient cells (Van Meerloo et al., 2011). The MTT assay measures mitochondrial activity, so in some instances where the peptide activates mitochondrial response, the results appear to increase the number of cells present i.e. >100% cell viability.
The aim of this experiment was to identify peptide concentrations that are active on living cells and cell viability was assessed.
The glioblastoma multiforme (GBM) cell lines used were U87 and U251 cells and patient derived cells grown as oncospheres (081024 cells). Human adherent GBM cell lines U87 and U251 were cultured in RPMI medium (Life Technologies Melbourne Australia) supplemented with 5% v/v FBS, 100 U/mL penicillin and 100 μg/mL streptomycin. 081024 cells were cultrured in NeuroCult™ NS-A Proliferation medium with 0.2% (v/v) heparin, 20 ng/mL EGF and 10 ng/mL FGF.
8×10^3 U87 and 7×10^3 U251 cells per well were seeded in 96 well plates in 200 μL serum-containing RPMI medium and incubated at 37° C. with 5% CO2 for 24 hours. After one wash with serum-free medium, 100 μL serum-free medium with different concentration of peptide SEQ ID NO:1 was added to each well. After 48 hours incubation, 10 μL of 0.5 mg/mL MTT was added and incubated for 2 hours at 37° C. Formazan crystals were dissolved by 200 μL/well dimethyl sulfoxide (DMSO) and shaking for 15 minutes. The UV absorbance was read with an iMark™ microplate absorbance reader at 595 nm (Bio-Rad Laboratories). Background absorbance was subtracted and results expressed as the % viability of control (untreated cells).

Structures are written as SMILES. Residues, ends and D or L forms follow the SMILES beside them.

As for `CC(C)C[C@@H]1NC(=O)[C@H](C)NC(=O)[C@@H](NC(=O)[C@@H]2CCCN2C(=O)[C@@H](N)CC(C)C)CSSC(C)(C)CNC(=O)CC[C@@H](C(=O)N[C@@H](CCCNC(=N)N)C(N)=O)NC(=O)[C@H](CC(=O)O)NC(=O)[C@H](CC(N)=O)NC1=O` [SEQ ID NO: 1, Leu-Pro-c(SSA*-Ala-Leu-Asn-Asp-Glu)-Arg-NH2] (HELM PEPTIDE1{L.P.C.A.L.N.D.E.R.[am]}|CHEM1{[CC(C)(CN[*:2])S[*:1]]}$PEPTIDE1,CHEM1,3:R3-1:R1|PEPTIDE1,CHEM1,8:R3-1:R2$$$V2.0; N-terminus assumed), the “metalloprotease production, MMP-9” value is 98.96 in the data set on MMP-9 (081024 cells); 58.61 in the data set with MMP-9 (U87 cells, listed as SEQ ID NO. 1); “decreased production” in the data set on MMP-9 (U87 cells, listed as SEQ ID NO.1); 63.4 in the data set on MMP-9 (U251 cells, listed as SEQ ID NO. 1); “decreased production” in the data set on MMP-9 (U251 cells, listed as SEQ ID NO.1). In addition, the Cell viability in the data set with U251 cells (1 μM) came out at 100.7%; with U251 cells (5 μM), 101.7%; in the data set on U251 cells (10 μM), 100.4%; in the data set with U251 cells (50 μM), 107.3%; in the data set with U251 cells (100 μM), 105.5%; in the data set with U251 cells (500 μM), 93.84%. The Cell viability with U251 cells (1 mM) was 83.99%.

(Values after US20240059740A1, “CYCLIC PEPTIDES AND USES THEREOF” (PRE[…] INC., priority 2020, published 2024).)
